Values quoted from earlier work as cited in patent US20250231185A1, “Coronavirus T Cell Epitopes, Megapools and Uses Thereof” (La Jolla Institute for Immunology, priority 2021, published 2025).

Test system: CD8+ T cells
Conditions: CD8R (D) megapool epitopes; dominant = recognized by 3 or more donors/different studies; cited from earlier work

| Substance | Dominant |
| --- | --- |
| 1817 (KLGSLVVRC) [compound 1817] | Yes (more dominant epitopes are defined by being recognized by 3 or more donors/different studies) |
| 1736 (KLNVGDYFV) [compound 1736] | Yes (more dominant epitopes are defined by being recognized by 3 or more donors/different studies) |
| 1792 (FTYASALWEI) [compound 1792] | Yes (more dominant epitopes are defined by being recognized by 3 or more donors/different studies) |
| 1702 (ASAFFGMSR) [compound 1702] | Yes (more dominant epitopes are defined by being recognized by 3 or more donors/different studies) |
| 1716 (LLMPILTLT) [compound 1716] | Yes (more dominant epitopes are defined by being recognized by 3 or more donors/different studies) |
| 1804 (ALSKGVHFV) [compound 1804] | Yes (more dominant epitopes are defined by being recognized by 3 or more donors/different studies) |
| 1806 (VYFLQSINF) [compound 1806] | Yes (more dominant epitopes are defined by being recognized by 3 or more donors/different studies) |
| 1780 (FLNGSCGSV) [compound 1780] | Yes (more dominant epitopes are defined by being recognized by 3 or more donors/different studies) |
| 1719 (ISDYDYYRY) [compound 1719] | Yes (more dominant epitopes are defined by being recognized by 3 or more donors/different studies) |
| 1788 (SMWALIISV) [compound 1788] | Yes (more dominant epitopes are defined by being recognized by 3 or more donors/different studies) |
| 1766 (SAPPAQYEL) [compound 1766] | Yes (more dominant epitopes are defined by being recognized by 3 or more donors/different studies) |
| 1668 (GTITVEELK) [compound 1668] | Yes (more dominant epitopes are defined by being recognized by 3 or more donors/different studies) |
| 1670 (FLFLTWICL) [compound 1670] | Yes (more dominant epitopes are defined by being recognized by 3 or more donors/different studies) |

Same assay, conditions: CD8RE megapool peptides (non-spike SARS-CoV-2 antigens); dominant epitope Yes/No; cited from earlier work

| Substance | Dominant |
| --- | --- |
| 2974 (IVDTVSALV) [compound 2974] | Yes (more dominant epitopes are defined by being recognized by 3 or more donors/different studies) |
| 2913 (ATSRTLSYY) [compound 2913] | Yes (more dominant epitopes are defined by being recognized by 3 or more donors/different studies) |
| 2989 (GVAMPNLYK) [compound 2989] | Yes (more dominant epitopes are defined by being recognized by 3 or more donors/different studies) |
| 2979 (IEYPIIGDEL) [compound 2979] | Yes (more dominant epitopes are defined by being recognized by 3 or more donors/different studies) |
| 2932 (QQQQGQTVTK) [compound 2932] | Yes (more dominant epitopes are defined by being recognized by 3 or more donors/different studies) |
| 2961 (RILGAGCFV) [compound 2961] | Yes (more dominant epitopes are defined by being recognized by 3 or more donors/different studies) |
| 3044 (YYQLYSTQL) [compound 3044] | Yes (more dominant epitopes are defined by being recognized by 3 or more donors/different studies) |
| 2929 (LALLLLDRL) [compound 2929] | Yes (more dominant epitopes are defined by being recognized by 3 or more donors/different studies) |
| 2925 (GTGPEAGLPY) [compound 2925] | Yes (more dominant epitopes are defined by being recognized by 3 or more donors/different studies) |
| 2973 (VYIGDPAQL) [compound 2973] | Yes (more dominant epitopes are defined by being recognized by 3 or more donors/different studies) |
| 3002 (NYMPYFFTL) [compound 3002] | Yes (more dominant epitopes are defined by being recognized by 3 or more donors/different studies) |
| 2933 (KPRQKRTAT) [compound 2933] | Yes (more dominant epitopes are defined by being recognized by 3 or more donors/different studies) |
| 3022 (KLKDCVMYA) [compound 3022] | Yes (more dominant epitopes are defined by being recognized by 3 or more donors/different studies) |
| 2960 (FYAYLRKHF) [compound 2960] | Yes (more dominant epitopes are defined by being recognized by 3 or more donors/different studies) |
| 3047 (RARSVSPKL) [compound 3047] | Yes (more dominant epitopes are defined by being recognized by 3 or more donors/different studies) |
| 3030 (ALRANSAVK) [compound 3030] | Yes (more dominant epitopes are defined by being recognized by 3 or more donors/different studies) |
| 2922 (KMKDLSPRW) [compound 2922] | Yes (more dominant epitopes are defined by being recognized by 3 or more donors/different studies) |
| 2995 (VTNNTFTLK) [compound 2995] | Yes (more dominant epitopes are defined by being recognized by 3 or more donors/different studies) |
| 3032 (CTDDNALAYY) [compound 3032] | Yes (more dominant epitopes are defined by being recognized by 3 or more donors/different studies) |
| 2993 (KTIQPRVEK) [compound 2993] | Yes (more dominant epitopes are defined by being recognized by 3 or more donors/different studies) |
| 3043 (FTSDYYQLY) [compound 3043] | Yes (more dominant epitopes are defined by being recognized by 3 or more donors/different studies) |

Same assay, conditions: SARS-CoV-2-derived CD8 epitopes; dominant = recognized by 3 or more donors/different studies; cited from earlier work

| Substance | Dominant |
| --- | --- |
| 661 (TTDPSFLGRY) [compound 661] | Yes (more dominant epitopes are defined by being recognized by 3 or more donors/different studies) |
| 583 (VTNNTFTLK) [compound 583] | Yes (more dominant epitopes are defined by being recognized by 3 or more donors/different studies) |
| 579 (KLVNKFLAL) [compound 579] | Yes (more dominant epitopes are defined by being recognized by 3 or more donors/different studies) |
| 558 (VLSEARQHL) [compound 558] | Yes (more dominant epitopes are defined by being recognized by 3 or more donors/different studies) |

Same assay, conditions: SARS-CoV-2 Ag S; T cell type recognizing the epitope; cited from earlier work

| Substance | Restriction |
| --- | --- |
| 1409 (AEVQIDRL) [compound 1409] | CD8 |
| 1349 (RSVASQSII) [compound 1349] | CD8 |
| 1325 (LVKNKCVNF) [compound 1325] | CD8 |
| 1310 (FERDISTEIY) [compound 1310] | CD8 |
| 1370 (QEVFAQVKQIY) [compound 1370] | CD8 |
| 1441 (FVSNGTHWF) [compound 1441] | CD8 |
| 1374 (VFAQVKQIY) [compound 1374] | CD8 |
| 1373 (EVFAQVKQIY) [compound 1373] | CD8 |
| 1364 (KTSVDCTMYI) [compound 1364] | CD8 |
| 1388 (TDEMIAQY) [compound 1388] | CD8 |
| 1403 (SVLNDILSR) [compound 1403] | CD8 |

Same assay, conditions: T cell subset (CD4 or CD8) recognizing the SARS-CoV-2-derived epitope; cited from earlier work

| Substance | Restriction |
| --- | --- |
| 593 (YLFDESGEF) [compound 593] | CD8 |
| 656 (KPHNSHEGKTF) [compound 656] | CD8 |
| 695 (KFADDLNQL) [compound 695] | CD8 |
| 661 (TTDPSFLGRY) [compound 661] | CD8 |
| 624 (APYIVGDVV) [compound 624] | CD8 |
| 583 (VTNNTFTLK) [compound 583] | CD8 |
| 556 (AADLDDFSKQL) [compound 556] | CD8 |
| 530 (DYKHWPQIAQF) [compound 530] | CD8 |
| 536 (APSASAFFGM) [compound 536] | CD8 |
| 603 (TIEVNSFSGY) [compound 603] | CD8 |
| 516 (SQASSRSSSR) [compound 516] | CD8 |
| 595 (FEPSTQYEY) [compound 595] | CD8 |
| 586 (QGYKSVNITF) [compound 586] | CD8 |
| 579 (KLVNKFLAL) [compound 579] | CD8 |
| 559 (HLKDGTCGL) [compound 559] | CD8 |
| 681 (YTGNYQCGHY) [compound 681] | CD8 |
| 636 (AIVSTIQRKYK) [compound 636] | CD8 |
| 613 (GADPIHSLR) [compound 613] | CD8 |
| 644 (YYTSNPTTF) [compound 644] | CD8 |
| 623 (LVSDIDITF) [compound 623] | CD8 |
| 598 (LEFGATSAAL) [compound 598] | CD8 |
| 669 (YPQVNGLTSI) [compound 669] | CD8 |
| 558 (VLSEARQHL) [compound 558] | CD8 |
| 581 (APKEIIFL) [compound 581] | CD8 |
| 602 (TPVVQTIEV) [compound 602] | CD8 |
| 571 (ILSPLYAFA) [compound 571] | CD8 |
| 620 (EVKPFITESK) [compound 620] | CD8 |
| 591 (VELGTEVNEF) [compound 591] | CD8 |
| 524 (RTATKAYNV) [compound 524] | CD8 |

Same assay, conditions: T cell type (CD4 or CD8) recognizing the SARS-CoV-2 epitope; cited from earlier work

| Substance | Restriction |
| --- | --- |
| 1074 (TICAPLTVF) [compound 1074] | CD8 |
| 1016 (WEPEFYEAM) [compound 1016] | CD8 |
| 941 (HVDTDLTKPY) [compound 941] | CD8 |
| 949 (SFGPLVRKI) [compound 949] | CD8 |
| 933 (FVENPDILRV) [compound 933] | CD8 |
| 917 (YFIKGLNNL) [compound 917] | CD8 |
| 971 (FAYTKRNVI) [compound 971] | CD8 |
| 1015 (SRYWEPEF) [compound 1015] | CD8 |
| 988 (RLANECAQV) [compound 988] | CD8 |
| 993 (FVNEFYAYLR) [compound 993] | CD8 |
| 996 (YAYLRKHF) [compound 996] | CD8 |
| 984 (MLRIMASL) [compound 984] | CD8 |
| 1097 (FWRNTNPIQL) [compound 1097] | CD8 |
| 952 (FVVSTGYHFR) [compound 952] | CD8 |
